The results in this text go back to US8022225B2, “Triazole derivative” (Taisho Pharmaceutical Co., Ltd, priority 2004, dated 2011).

In general, inhibition refers to the change of the read-out against control, counted positive when it falls.

The target of test [1] is T1, human Edg-1(S1P1) (Homo sapiens, UniProt P21453).
T1 construct: expressed in transfected cells; host or cells: HEK-293
The experiment in a line: Membrane system binding test: inhibition of [33P]-S1P binding to the membrane fraction of Edg-1(S1P1) gene transferred HEK-293 cells. As to conditions: 10 μM compound; [33P]-S1P 0.1 nM; membrane fraction of Edg-1(S1P1) gene transferred HEK-293 cells; read-out: Membrane system binding test % inhibition (10 μM). Here is the method: The membrane fraction was obtained by treating the cells with a solubilizing buffer (1 mM Tris/HCl, pH 7.2) for 10 minutes on ice, centrifuging the system (1000×g, 5 min) to remove insoluble fractions, and then centrifuging the system (40000×g, 30 min, 4° C.). The resulting membrane fraction was dissolved in a binding buffer (20 mM Tris-HCl, pH 7.4, 100 mM NaCl, 15 mM NaF, 2 mM deoxypyridoxine, 4 mg/mL fatty acid-free BSA), and then [^33P]-S1P (produced by ARC, end concentration 0.1 nM) and a DMSO solution of the test compound (end concentration of the compound: 10^−5 M, end concentration of DMSO: 0.1%) were added, followed by stirring the mixture and subsequently treating it for 1 hour at 30° C. Using a harvester, the membrane fraction was harvested onto unifilter-96GF/C filter (produced by Perkin-Elmer). Then, the filter with the membrane fraction was washed 4 times with the binding buffer, and the filter was dried. To the filter, 25 μL Microscint 0 (produced by Perkin-Elmer) was added, and the assay system was measured for radioactivity by means of Top Count NXT (Packard). Based on the radioactivity, the amount (A) of binding of [^33P]-S1P to the membrane fraction upon addition of the compound was calculated.
The same procedure was performed in the absence of the test compound, and the amount (B) of binding of [^33P]-S1P was calculated. Moreover, the same procedure was performed in the absence of the test compound with the use of HEK-293 cells, to which the Edg-1(S1P1) gene had not been transferred, and the background amount (C) of binding of [^33P]-S1P was calculated.
The Edg-1(S1P1) binding inhibition rate of the compound, calculated from the following equation, is shown in […]

Test [2] concerns the target T1, human Edg-1(S1P1). The experiment in a line: Cell system binding test: inhibition of [3H]-S1P binding to Edg-1(S1P1) gene transferred HEK-293 cells. As to conditions: 10 μM compound, [3H]-S1P 10 nM, read-out: Cell system binding test % inhibition (10 μM).

T1 sequence (P21453 whole entry): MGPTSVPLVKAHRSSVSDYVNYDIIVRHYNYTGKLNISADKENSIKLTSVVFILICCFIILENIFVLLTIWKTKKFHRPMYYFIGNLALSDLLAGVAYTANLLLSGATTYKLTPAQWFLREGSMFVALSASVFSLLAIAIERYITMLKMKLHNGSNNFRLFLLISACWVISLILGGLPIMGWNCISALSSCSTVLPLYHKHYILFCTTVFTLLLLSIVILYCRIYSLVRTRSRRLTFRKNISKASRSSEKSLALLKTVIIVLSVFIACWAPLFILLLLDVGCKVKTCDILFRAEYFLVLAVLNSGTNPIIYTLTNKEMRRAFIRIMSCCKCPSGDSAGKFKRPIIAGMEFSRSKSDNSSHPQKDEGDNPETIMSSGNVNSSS

With `CCn1c(SC(c2ccccc2)c2ccccc2)nnc1[C@@H](C)NS(=O)(=O)c1ccc(Cl)cc1` [Compound 40], the inhibition at 10 µM worked out at 46.1% at human Edg-1(S1P1) [1] and 87% at human Edg-1(S1P1) [2].

`CCn1c(SC(C)c2ccccc2)nnc1[C@@H](C)NS(=O)(=O)c1ccc(Cl)cc1` (stereo partly shown) [Compound 41]: the results for the inhibition at 10 µM on human Edg-1(S1P1) [1] and at human Edg-1(S1P1) [2] were 97.3% and 87.3%, respectively.

In the case of `CCn1c(SCc2ccccc2Cl)nnc1[C@@H](C)NS(=O)(=O)c1ccc(Cl)cc1` [Compound 42], the values for the inhibition at 10 µM at human Edg-1(S1P1) [1] and on human Edg-1(S1P1) [2] were 98.8% and 85.4%, respectively.

Regarding `CCn1c(SCc2c(Cl)cccc2Cl)nnc1[C@@H](C)NS(=O)(=O)c1ccc(Cl)cc1` [Compound 43], the inhibition at 10 µM at human Edg-1(S1P1) [1] turned out to be 102%; at human Edg-1(S1P1) [2], 90.5%.

For the molecule `CCn1c(SCc2cccc(Cl)c2)nnc1[C@@H](C)NS(=O)(=O)c1ccc(Cl)cc1` [Compound 44], the inhibition at 10 µM at human Edg-1(S1P1) [1] turned out to be 99.6%; on human Edg-1(S1P1) [2] it was 93%.

Take `CCn1c(SCc2ccc(Cl)cc2)nnc1[C@@H](C)NS(=O)(=O)c1ccc(Cl)cc1` [Compound 45]: the inhibition at 10 µM turned out to be 91.3% on human Edg-1(S1P1) [1] and 91.7% on human Edg-1(S1P1) [2].

On to `CCn1c(SCc2ccc(C(F)(F)F)cc2)nnc1C(C)NS(=O)(=O)c1ccc(Cl)cc1` (stereo not shown) [Compound 46], for which the inhibition at 10 µM is 99.5% at human Edg-1(S1P1) [1] and 90.4% at human Edg-1(S1P1) [2].

On to `CCn1c(SCC(=O)c2ccccc2)nnc1[C@@H](C)NS(=O)(=O)c1ccc(Cl)cc1` [Compound 47], for which the inhibition at 10 µM stood at 99.2% on human Edg-1(S1P1) [1] and 92.5% at human Edg-1(S1P1) [2].

`CCn1c(SCc2cccc3ccccc23)nnc1[C@@H](C)NS(=O)(=O)c1ccc(Cl)cc1` [Compound 48]: the results for the inhibition at 10 µM at human Edg-1(S1P1) [1] and at human Edg-1(S1P1) [2] were 101% and 93%, respectively.

In the case of `CCn1c(SC2CCOC2)nnc1[C@@H](C)NS(=O)(=O)c1ccc(Cl)cc1` (stereo partly shown) [Compound 49], the figures for the inhibition at 10 µM on human Edg-1(S1P1) [1] and at human Edg-1(S1P1) [2] were 93.9% and 94.8%, respectively.

For `CCn1c(SC/C=C\COCc2ccccc2)nnc1[C@@H](C)NS(=O)(=O)c1ccc(Cl)cc1` [Compound 50], the inhibition at 10 µM turned out to be 96.2% at human Edg-1(S1P1) [1] and 95.3% at human Edg-1(S1P1) [2].

As for `CCn1c(SC2CCc3ccccc32)nnc1[C@@H](C)NS(=O)(=O)c1ccc(Cl)cc1` (stereo partly shown) [Compound 51], the results for the inhibition at 10 µM on human Edg-1(S1P1) [1] and on human Edg-1(S1P1) [2] were 93% and 91.2%, respectively.

Regarding `CCn1c(SC(C(=O)OC)c2ccccc2)nnc1[C@@H](C)NS(=O)(=O)c1ccc(Cl)cc1` (stereo partly shown) [Compound 52], the inhibition at 10 µM on human Edg-1(S1P1) [1] stood at 89.1%; on human Edg-1(S1P1) [2], 93.6%.

Turning to `CCSc1nnc([C@@H](C)NS(=O)(=O)c2ccc(Cl)cc2)n1CC` [Compound 53], the results for the inhibition at 10 µM on human Edg-1(S1P1) [1] and on human Edg-1(S1P1) [2] were 89.3% and 90.8%, respectively.

As for `CCn1c(SC(C)C)nnc1[C@@H](C)NS(=O)(=O)c1ccc(Cl)cc1` [Compound 54], the results for the inhibition at 10 µM at human Edg-1(S1P1) [1] and on human Edg-1(S1P1) [2] were 105% and 88.7%, respectively.

On to `CCn1c(SC2CCC2)nnc1[C@@H](C)NS(=O)(=O)c1ccc(Cl)cc1` [Compound 55], for which the inhibition at 10 µM at human Edg-1(S1P1) [1] was found to be 104%; on human Edg-1(S1P1) [2] it was 94.3%.

On to `CCn1c(SCc2ccc(C#N)cc2)nnc1[C@@H](C)NS(=O)(=O)c1ccc(Cl)cc1` [Compound 56], for which the inhibition at 10 µM at human Edg-1(S1P1) [1] amounted to 91%; at human Edg-1(S1P1) [2] it was 87.1%.

Take `CCn1c(SCC(F)F)nnc1[C@@H](C)NS(=O)(=O)c1ccc(Cl)cc1` [Compound 57]: the inhibition at 10 µM on human Edg-1(S1P1) [1] is 100%; on human Edg-1(S1P1) [2], 92.6%.

Turning to `CCn1c(SCc2ccc(C(=O)OC)cc2)nnc1[C@@H](C)NS(=O)(=O)c1ccc(Cl)cc1` [Compound 58], the inhibition at 10 µM on human Edg-1(S1P1) [1] amounted to 98.1%; on human Edg-1(S1P1) [2], 91.9%.

On to `CCn1c(SCc2ccc(C)cc2)nnc1[C@@H](C)NS(=O)(=O)c1ccc(Cl)cc1` [Compound 59], for which the inhibition at 10 µM amounted to 96.9% on human Edg-1(S1P1) [1] and 93.2% at human Edg-1(S1P1) [2].

In the case of `CCn1c(SCc2ccc(SC)cc2)nnc1[C@@H](C)NS(=O)(=O)c1ccc(Cl)cc1` [Compound 60], the inhibition at 10 µM on human Edg-1(S1P1) [1] worked out at 97.2%; on human Edg-1(S1P1) [2], 90.3%.

For the molecule `CCn1c(SCCc2ccccc2)nnc1[C@@H](C)NS(=O)(=O)c1ccc(Cl)cc1` [Compound 61], the inhibition at 10 µM on human Edg-1(S1P1) [1] turned out to be 98.9%; on human Edg-1(S1P1) [2], 95%.

Consider `CCn1c(SCCc2ccccn2)nnc1[C@@H](C)NS(=O)(=O)c1ccc(Cl)cc1` [Compound 62], for which the inhibition at 10 µM worked out at 90.6% at human Edg-1(S1P1) [1] and 92.9% at human Edg-1(S1P1) [2].

For the molecule `CCn1c(SCc2ccccn2)nnc1[C@@H](C)NS(=O)(=O)c1ccc(Cl)cc1` [Compound 63], the inhibition at 10 µM was 99.7% on human Edg-1(S1P1) [1] and 93.7% at human Edg-1(S1P1) [2].

On to `CCn1c(SCc2ccncc2)nnc1[C@@H](C)NS(=O)(=O)c1ccc(Cl)cc1` [Compound 64], for which the values for the inhibition at 10 µM at human Edg-1(S1P1) [1] and at human Edg-1(S1P1) [2] were 86.5% and 91.3%, respectively.

With `CCn1c(SCC2CCCN(C)C2)nnc1[C@@H](C)NS(=O)(=O)c1ccc(Cl)cc1` (stereo partly shown) [Compound 65], the inhibition at 10 µM was determined as 83.1% at human Edg-1(S1P1) [1] and 83.3% on human Edg-1(S1P1) [2].

Take `CCn1c(SCCCCCCN(C)C)nnc1[C@@H](C)NS(=O)(=O)c1ccc(Cl)cc1` [Compound 66]: the inhibition at 10 µM at human Edg-1(S1P1) [1] is 90.6%; on human Edg-1(S1P1) [2] it was 84%.

In the case of `CCn1c(SCCCN(C)C)nnc1[C@@H](C)NS(=O)(=O)c1ccc(Cl)cc1` [Compound 67], the inhibition at 10 µM at human Edg-1(S1P1) [1] was 42.2%; at human Edg-1(S1P1) [2] it was 73.8%.

For the molecule `CCn1c(SCCCc2ccncc2)nnc1[C@@H](C)NS(=O)(=O)c1ccc(Cl)cc1` [Compound 68], the inhibition at 10 µM on human Edg-1(S1P1) [1] is 97.9%; on human Edg-1(S1P1) [2], 93%.

For the molecule `CCn1c(SCCc2ccncc2)nnc1[C@@H](C)NS(=O)(=O)c1ccc(Cl)cc1` [Compound 69], the figures for the inhibition at 10 µM on human Edg-1(S1P1) [1] and at human Edg-1(S1P1) [2] were 92.7% and 89.5%, respectively.

For the molecule `CCn1c(SC2CCN(C)CC2)nnc1[C@@H](C)NS(=O)(=O)c1ccc(Cl)cc1` [Compound 70], the inhibition at 10 µM at human Edg-1(S1P1) [1] amounted to 98%; at human Edg-1(S1P1) [2], 88.4%.

On to `CCn1c(SCc2cccc(N(C)C)c2)nnc1[C@@H](C)NS(=O)(=O)c1ccc(Cl)cc1` [Compound 71], for which the figures for the inhibition at 10 µM on human Edg-1(S1P1) [1] and at human Edg-1(S1P1) [2] were 104% and 89.7%, respectively.

For the molecule `CCn1c(SCC2CCN(Cc3ccccc3)CC2)nnc1[C@@H](C)NS(=O)(=O)c1ccc(Cl)cc1` [Compound 72], the values for the inhibition at 10 µM at human Edg-1(S1P1) [1] and at human Edg-1(S1P1) [2] were 95.8% and 89.8%, respectively.

On to `CCn1c(SCCN2CCNC2=O)nnc1[C@@H](C)NS(=O)(=O)c1ccc(Cl)cc1` [Compound 73], for which the inhibition at 10 µM is 98.4% at human Edg-1(S1P1) [1] and 93.9% at human Edg-1(S1P1) [2].

For `CCn1c(SCCNC(=O)c2ccncc2)nnc1[C@@H](C)NS(=O)(=O)c1ccc(Cl)cc1` [Compound 74], the inhibition at 10 µM at human Edg-1(S1P1) [1] turned out to be 109%; at human Edg-1(S1P1) [2], 93.6%.

Regarding `CCN(CCSc1nnc([C@@H](C)NS(=O)(=O)c2ccc(Cl)cc2)n1CC)c1ccccc1` [Compound 75], the inhibition at 10 µM at human Edg-1(S1P1) [1] was 99.4%; on human Edg-1(S1P1) [2], 92.7%.

Take `CCn1c(SCCC2CCN(C)CC2)nnc1[C@@H](C)NS(=O)(=O)c1ccc(Cl)cc1` [Compound 76]: the results for the inhibition at 10 µM at human Edg-1(S1P1) [1] and at human Edg-1(S1P1) [2] were 101% and 97.3%, respectively.

In the case of `CCn1c(SCCc2ccc(N(C)C)cc2)nnc1[C@@H](C)NS(=O)(=O)c1ccc(Cl)cc1` [Compound 77], the results for the inhibition at 10 µM on human Edg-1(S1P1) [1] and on human Edg-1(S1P1) [2] were 96.4% and 89.4%, respectively.
